Reference: patent US20260285856A1, “A 1,5-DIHYDRO-4H-PYRROLO[3,2-C] PYRIDIN-4-ONE FOR USE IN THE TREATMENT OF CANCER” (ANTARES THERAPEUTICS, INC., priority 2023, published 2026)

What was measured:
Format in all cases: cell-based
[1] = target: T1, EGFR exon 20 ASV Ins V769_D770 (Homo sapiens, UniProt P00533, INS769ASV); assay: Ba/F3 cell viability (CellTiter-Glo), EGFR exon 20 ASV insertion; settings: Ba/F3 cells expressing EGFR exon 20 ASV Ins V769_D770, 72 hours, read-out: BaF3 ASV IC50
T1 construct: expressed in transfected cells; host or cells: Ba/F3 (murine pro-B cells), retroviral transduction, puromycin selection, IL3 withdrawal
Source text: (§1) Cell lines are generated by transducing Ba/F3 cells with retroviruses containing vectors with EGFR WT, EGFR exon 20 NPG Ins D770_N771, EGFR exon 20 ASV Ins V769_D770, EGFR exon 20 SVD Ins D770_N771, or EGFR exon 20 FQEA Ins A763_V764 genes and a puromycin selection marker. Transduced cells are selected with puromycin for 7 days and are then be transferred into culture media without Interleukin 3 (IL3). EGFR WT cells are maintained with supplemental EGF. Surviving cells are confirmed to express EGFR by Western blot and maintained as a pool. The IC50 data are included in Table 6.
(§2) • 1.1 Cells are harvested from flask into cell culture medium and the cell number counted. • 1.2 Cells are diluted with culture medium to the desired density and 40 NL of cell suspension is added into each well of 384-well cell culture plate and the seeding density is 600 cells/well.
(§3) • 2.1 Test compounds are dissolved to 10 mM in a DMSO stock solution. […]
(§4) • 3.1 Plates are removed from incubators and equilibrated at room temperature for 15 minutes. • 3.2 Thaw the CellTiter Glo reagents and allow to equilibrate to room temperature before the experiment. • 3.3 Add 40 μL of CellTiter-Glo reagent into each well (at 1:1 to culture medium). Then place the plates at room temperature for 30 min followed by reading on EnVision.
(§5) • 4.1 Inhibition activity is calculated following the formula below: […]

[2] = tested on: EGFR mutant versus EGFR WT; assay: EGFR mutant potency and selectivity against EGFR WT, compared with the enantiomer; settings: relative to its enantiomer (compound 635 in WO 2022/066734)
Source text: as §1

[3] = target: T2, EGFR exon 20 NPG Ins D770_N771 (Homo sapiens, UniProt P00533, INS770NPG); assay: Ba/F3 cell viability (CellTiter-Glo), EGFR exon 20 NPG insertion; settings: Ba/F3 cells expressing EGFR exon 20 NPG Ins D770_N771, 72 hours, read-out: BaF3 NPG IC50
T2 construct: expressed in transfected cells; host or cells: Ba/F3 (murine pro-B cells), retroviral transduction, puromycin selection, IL3 withdrawal
Source text: as §1, §2, §3, §4, §5

[4] = target: EGFR phosphorylation (pEGFR) in CUTO14 cells (Homo sapiens, UniProt P00533, INS769ASV); assay: EGFR phosphorylation (pEGFR) AlphaLISA in CUTO14 cells; settings: 2 hours
Source text: EGFR mutant Ba/F3 cells were generated by transduction with retrovirus containing vectors expressing EGFR exon 20 NPG Ins D770_N771, EGFR exon 20 ASV Ins V769_D770, or EGFR exon 20 SVD Ins D770_N771 genes along with a puromycin selection marker. Transduced cells are selected with puromycin for 7 days and are then be transferred into culture media without Interleukin 3 (IL3). Surviving cells are confirmed to express EGFR by Western blot and maintained as a pool. CUTO14 cells were obtained from Dr. Robert C. Doebele at the University of Colorado. The IC50 data are included in Table 6.
as §2, with “μL” for “NL”, “50K cells/well (Ba/F3) or 12.5K cells/well (CUTO14).” for “600 cells/well.”
• 2.1 Test compounds are dissolved to 10 mM in a DMSO stock solution. 45 μL of stock solution is transferred to a 384 polypropylene plate (pp-plate). […] Mix well on the shaker, seal and wrap in aluminum foil and incubate 1.5 hrs at room temperature in the dark • 3.5 Transfer 18.5 μL mixture to OptiPlate 384, and read using an Envision.

[5] = target: T3, EGFR exon 20 SVD Ins D770_N771 (Homo sapiens, UniProt P00533, INS770SVD); assay: Ba/F3 cell viability (CellTiter-Glo), EGFR exon 20 SVD insertion; settings: Ba/F3 cells expressing EGFR exon 20 SVD Ins D770_N771, 72 hours, read-out: BaF3 SVD IC50
T3 construct: expressed in transfected cells; host or cells: Ba/F3 (murine pro-B cells), retroviral transduction, puromycin selection, IL3 withdrawal
Source text: as §1, §2, §3, §4, §5

EGFR WT = target: T4, EGFR WT (Homo sapiens, UniProt P00533); assay: Ba/F3 cell viability (CellTiter-Glo), EGFR WT; settings: Ba/F3 cells expressing EGFR WT, supplemental EGF, 72 hours, read-out: BaF3 WT IC50
T4 construct: expressed in transfected cells; host or cells: Ba/F3 (murine pro-B cells), retroviral transduction; maintained with supplemental EGF
Source text: as §1, §2, §3, §4, §5

T1 sequence (P00533 with tags, fused parts or gaps INS769ASV): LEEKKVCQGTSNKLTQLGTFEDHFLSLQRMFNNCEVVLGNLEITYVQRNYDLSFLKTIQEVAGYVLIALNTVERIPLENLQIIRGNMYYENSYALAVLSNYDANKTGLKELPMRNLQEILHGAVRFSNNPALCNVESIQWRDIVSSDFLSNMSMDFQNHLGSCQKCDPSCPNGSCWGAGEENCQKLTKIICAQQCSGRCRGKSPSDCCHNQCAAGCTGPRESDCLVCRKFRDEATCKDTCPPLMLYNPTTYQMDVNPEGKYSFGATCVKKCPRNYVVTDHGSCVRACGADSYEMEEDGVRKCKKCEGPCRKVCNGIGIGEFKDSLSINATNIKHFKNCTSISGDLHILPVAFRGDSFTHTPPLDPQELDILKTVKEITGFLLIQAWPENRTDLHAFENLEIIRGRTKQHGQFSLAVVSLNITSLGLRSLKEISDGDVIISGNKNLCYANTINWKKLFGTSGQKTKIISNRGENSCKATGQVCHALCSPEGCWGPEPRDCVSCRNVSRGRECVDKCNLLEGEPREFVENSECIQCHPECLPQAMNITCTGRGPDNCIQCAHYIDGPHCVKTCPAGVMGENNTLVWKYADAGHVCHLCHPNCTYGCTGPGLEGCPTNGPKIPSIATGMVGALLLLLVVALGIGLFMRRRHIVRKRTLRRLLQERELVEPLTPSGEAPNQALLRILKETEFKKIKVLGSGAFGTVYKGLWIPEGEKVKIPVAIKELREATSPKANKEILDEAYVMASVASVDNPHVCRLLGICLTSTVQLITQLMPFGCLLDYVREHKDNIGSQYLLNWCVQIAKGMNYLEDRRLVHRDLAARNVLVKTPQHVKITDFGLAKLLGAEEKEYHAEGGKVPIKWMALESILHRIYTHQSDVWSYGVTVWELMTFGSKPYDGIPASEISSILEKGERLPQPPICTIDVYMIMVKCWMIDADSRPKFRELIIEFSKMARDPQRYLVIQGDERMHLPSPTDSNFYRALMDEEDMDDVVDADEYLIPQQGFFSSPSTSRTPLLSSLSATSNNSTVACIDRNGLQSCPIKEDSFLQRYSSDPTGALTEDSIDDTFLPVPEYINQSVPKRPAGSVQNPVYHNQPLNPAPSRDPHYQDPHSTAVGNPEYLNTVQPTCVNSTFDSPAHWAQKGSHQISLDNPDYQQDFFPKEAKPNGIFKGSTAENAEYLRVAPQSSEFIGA
EGFR phosphorylation (pEGFR) in CUTO14 cells, sequence (P00533 with tags, fused parts or gaps INS769ASV): as above
T3 sequence (P00533 with tags, fused parts or gaps INS770SVD): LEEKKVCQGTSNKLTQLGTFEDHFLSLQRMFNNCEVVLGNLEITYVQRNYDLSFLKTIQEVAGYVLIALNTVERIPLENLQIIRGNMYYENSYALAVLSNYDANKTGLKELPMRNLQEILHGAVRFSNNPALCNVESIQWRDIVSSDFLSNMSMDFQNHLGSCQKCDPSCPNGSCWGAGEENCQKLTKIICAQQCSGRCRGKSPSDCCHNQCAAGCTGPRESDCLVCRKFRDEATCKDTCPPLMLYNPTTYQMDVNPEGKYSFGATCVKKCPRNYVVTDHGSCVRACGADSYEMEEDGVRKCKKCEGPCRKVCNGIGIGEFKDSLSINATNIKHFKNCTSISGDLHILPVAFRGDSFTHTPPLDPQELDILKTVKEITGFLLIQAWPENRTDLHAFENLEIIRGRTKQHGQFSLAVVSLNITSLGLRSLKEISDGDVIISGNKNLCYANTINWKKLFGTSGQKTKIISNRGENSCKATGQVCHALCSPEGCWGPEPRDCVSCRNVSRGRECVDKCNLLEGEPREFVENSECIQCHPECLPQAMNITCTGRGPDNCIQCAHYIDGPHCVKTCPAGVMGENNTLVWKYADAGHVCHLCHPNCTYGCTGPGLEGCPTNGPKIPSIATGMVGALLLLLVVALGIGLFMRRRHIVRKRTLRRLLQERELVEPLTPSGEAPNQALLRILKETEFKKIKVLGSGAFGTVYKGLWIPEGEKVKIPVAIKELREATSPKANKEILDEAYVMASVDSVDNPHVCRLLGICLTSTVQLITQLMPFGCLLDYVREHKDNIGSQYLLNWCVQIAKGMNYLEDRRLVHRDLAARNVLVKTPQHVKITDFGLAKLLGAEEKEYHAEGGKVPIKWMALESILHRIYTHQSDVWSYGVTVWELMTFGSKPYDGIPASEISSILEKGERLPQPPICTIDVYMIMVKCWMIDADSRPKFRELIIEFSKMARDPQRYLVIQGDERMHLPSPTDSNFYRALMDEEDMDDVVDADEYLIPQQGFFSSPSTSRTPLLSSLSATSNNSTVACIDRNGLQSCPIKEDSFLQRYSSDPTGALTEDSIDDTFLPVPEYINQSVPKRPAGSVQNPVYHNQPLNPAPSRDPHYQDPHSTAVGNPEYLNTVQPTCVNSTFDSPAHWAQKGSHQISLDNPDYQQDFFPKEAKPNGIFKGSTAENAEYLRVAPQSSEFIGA
T4 sequence (P00533 25-1210): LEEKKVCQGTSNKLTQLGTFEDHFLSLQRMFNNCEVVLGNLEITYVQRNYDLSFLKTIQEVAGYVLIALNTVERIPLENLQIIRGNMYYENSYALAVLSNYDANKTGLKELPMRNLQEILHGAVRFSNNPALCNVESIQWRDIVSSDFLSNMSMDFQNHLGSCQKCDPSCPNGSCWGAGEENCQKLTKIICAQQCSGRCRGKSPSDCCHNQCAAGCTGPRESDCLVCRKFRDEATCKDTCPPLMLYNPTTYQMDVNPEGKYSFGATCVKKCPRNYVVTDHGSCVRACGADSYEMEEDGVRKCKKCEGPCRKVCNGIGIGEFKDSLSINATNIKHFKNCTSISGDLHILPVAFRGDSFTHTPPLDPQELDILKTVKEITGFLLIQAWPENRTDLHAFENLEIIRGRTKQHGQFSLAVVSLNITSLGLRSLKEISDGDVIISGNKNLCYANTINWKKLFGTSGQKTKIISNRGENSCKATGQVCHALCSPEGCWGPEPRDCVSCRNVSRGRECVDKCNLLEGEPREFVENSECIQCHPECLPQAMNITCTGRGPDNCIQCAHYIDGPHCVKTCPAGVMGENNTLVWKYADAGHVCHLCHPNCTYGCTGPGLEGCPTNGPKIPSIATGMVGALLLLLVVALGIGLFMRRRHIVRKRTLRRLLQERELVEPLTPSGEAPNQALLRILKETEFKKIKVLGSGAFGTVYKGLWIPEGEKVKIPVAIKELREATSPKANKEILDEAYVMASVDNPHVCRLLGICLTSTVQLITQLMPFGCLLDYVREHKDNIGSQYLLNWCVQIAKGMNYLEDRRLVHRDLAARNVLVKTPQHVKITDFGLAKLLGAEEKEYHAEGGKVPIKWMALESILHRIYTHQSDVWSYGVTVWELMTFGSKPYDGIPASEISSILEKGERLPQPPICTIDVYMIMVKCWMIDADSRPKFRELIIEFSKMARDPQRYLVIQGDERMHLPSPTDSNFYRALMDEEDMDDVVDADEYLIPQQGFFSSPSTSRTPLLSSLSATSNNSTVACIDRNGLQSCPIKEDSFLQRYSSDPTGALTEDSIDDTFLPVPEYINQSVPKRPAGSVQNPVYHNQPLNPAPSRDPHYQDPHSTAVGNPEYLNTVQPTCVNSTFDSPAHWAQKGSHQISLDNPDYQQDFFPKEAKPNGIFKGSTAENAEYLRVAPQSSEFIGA

Q: `COc1c(Cl)cccc1Nc1c(-c2ccncc2C#C[C@@]2(C)CCCN2C(=O)/C=C/CN(C)C)[nH]c2cc[nH]c(=O)c12` [(I), 3-[(3-chloro-2-methoxyphenyl)amino]-2-(3-{2-[(2R)-1-[(2E)-4-(dimethylamino)but-2-enoyl]-2-methylpyrrolidin-2-yl]ethynyl}pyridin-4-yl)-1H,5H-pyrrolo[3,2-c]pyridin-4-one] was tested. Which IC50 [1] did it give?
A: < 100 nM

Q: And the “EGFR mutant potency and selectivity against EGFR WT” value [2]?
A: greater than the potency and selectivity exhibited by its enantiomer

Q: What about the IC50 [3] of the same molecule?
A: < 100 nM

Q: And the IC50 [4]?
A: < 100 nM

Q: And the IC50 [5]?
A: < 100 nM

Q: What about the IC50 (EGFR WT) of the same molecule?
A: ≥ 1000 nM
